According to patent US11702404B2, “GLP-1R modulating compounds” (priority 2019, dated 2023):

Key:
[1] = Microsomal stability, human liver microsomes (predicted hepatic clearance); details: predicted from in vitro microsomal stability data
[2] = target: GLP-1R (Homo sapiens, UniProt P43220); test: GLP-1R activation: cAMP increase in CHO cells stably expressing GLP-1R; format: cell-based; details: cAMP increase, CHO cells stably expressing GLP-1R, 10 point dose response, 30 minutes incubation; read-out: EC50
Chain of GLP-1R (P43220 24-463): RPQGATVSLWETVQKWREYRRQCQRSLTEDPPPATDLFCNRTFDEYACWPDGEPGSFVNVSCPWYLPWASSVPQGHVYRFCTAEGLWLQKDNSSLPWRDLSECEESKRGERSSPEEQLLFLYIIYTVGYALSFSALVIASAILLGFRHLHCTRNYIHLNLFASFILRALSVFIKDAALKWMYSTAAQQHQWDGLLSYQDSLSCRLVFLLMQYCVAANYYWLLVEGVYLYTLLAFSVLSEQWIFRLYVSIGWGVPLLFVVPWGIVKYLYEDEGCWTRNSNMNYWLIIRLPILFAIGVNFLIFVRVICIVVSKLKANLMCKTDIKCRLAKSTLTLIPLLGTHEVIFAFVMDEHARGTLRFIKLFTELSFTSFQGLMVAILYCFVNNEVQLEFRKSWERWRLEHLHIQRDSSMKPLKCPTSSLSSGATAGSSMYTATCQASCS

Predicted Hepatic Clearance (Pred. Cl.) [1] | EC50 [2] | SMILES
<1.83 mL/min/kg | 369 nM | COCCn1c(Cc2ccc(-c3cccc(OCc4ccc(C#N)cc4F)n3)cc2-c2ccccc2)nc2ccc(C(=O)O)cc21 [Example 184, 2-((5-(6-((4-cyano-2-fluorobenzyl)oxy)pyridin-2-yl)-[1,1′-biphenyl]-2-yl)methyl)-1-(2-methoxyethyl)-1H-benzo[d]imidazole-6-carboxylic acid]
11.5 mL/min/kg | 812 nM | COCCn1c(Cc2c(F)cc(-c3cccnc3OCc3ccccc3)cc2F)nc2ccc(C(=O)O)cc21 [Example 186, 2-(4-(2-(benzyloxy)pyridin-3-yl)-2,6-difluorobenzyl)-1-(2-methoxyethyl)-1H-benzo[d]imidazole-carboxylic acid]
14.8 mL/min/kg | 723 nM | COCCn1c(Cc2ccc(-c3cccc(OCc4ccc(C#N)cc4F)n3)cc2-c2cccc([N+](=O)[O-])c2)nc2ccc(C(=O)O)cc21 [Example 187, 2-((5-(6-((4-cyano-2-fluorobenzyl)oxy)pyridin-2-yl)-3′-nitro-[1,1′-biphenyl]-2-yl)methyl)-1-(2-methoxyethyl)-1H-benzo[d]imidazole-6-carboxylic acid]
17.5 mL/min/kg | 36.9 nM | COCCn1c(Cc2ccc(-c3cccc(OCc4ccc(C#N)cc4F)n3)cc2-c2cccc(OC)c2)nc2ccc(C(=O)O)cc21 [Example 188, 2-((5-(6-((4-cyano-2-fluorobenzyl)oxy)pyridin-2-yl)-3′-methoxy-[1,1′-biphenyl]-2-yl)methyl)-1-(2-methoxyethyl)-1H-benzo[d]imidazole-6-carboxylic acid]
8.5 mL/min/kg | 3050 nM | COCCn1c(Cc2c(F)cc(-c3cncnc3OCc3ccc(C#N)cc3F)cc2F)nc2ccc(C(=O)O)cc21 [Example 189, 2-(4-(4-((4-cyano-2-fluorobenzyl)oxy)pyrimidin-5-yl)-2,6-difluorobenzyl)-1-(2-methoxyethyl)-1H-benzo[d]imidazole-carboxylic acid]
6.83 mL/min/kg | 252 nM | COCCn1c(Cc2ccc(-c3cccc(OCc4ccc(C#N)cc4F)n3)cc2-c2cnn(C(F)F)c2)nc2ccc(C(=O)O)cc21 [Example 190, 2-(4-(6-((4-cyano-2-fluorobenzyl)oxy)pyridin-2-yl)-2-(1-(difluoromethyl)-1H-pyrazol-4-yl)benzyl)-1-(2-methoxyethyl)-1H-benzo[d]imidazole-6-carboxylic acid]
13 mL/min/kg | 437 nM | COCCn1c(Cc2c(F)cc(-c3cccnc3OCc3ccccc3F)cc2F)nc2ccc(C(=O)O)cc21 [Example 192, 2-(2,6-difluoro-4-(2-((2-fluorobenzyl)oxy)pyridin-3-yl)benzyl)-1-(2-methoxyethyl)-1H-benzo[d]imidazole-carboxylic acid]
6.83 mL/min/kg | 131 nM | COCCn1c(Cc2ccc(-c3cccc(OCc4ccc(C#N)cc4F)n3)cc2-c2ccc(C#N)cc2)nc2ccc(C(=O)O)cc21 [Example 193, 2-((4′-cyano-5-(6-((4-cyano-2-fluorobenzyl)oxy)pyridin-2-yl)-[1,1′-biphenyl]-2-yl)methyl)-1-(2-methoxyethyl)-1H-benzo[d]imidazole-6-carboxylic acid]
4.67 mL/min/kg | 0.86 nM | N#Cc1ccc(COc2cccc(-c3ccc(Cc4nc5ccc(C(=O)O)cc5n4C[C@@H]4CCCO4)c(F)c3)n2)c(F)c1 [Example 194, (S)-2-(4-(6-((4-cyano-2-fluorobenzyl)oxy)pyridin-2-yl)-2-fluorobenzyl)-1-((tetrahydrofuran-2-yl)methyl)-1H-benzo[d]imidazole-carboxylic acid]
9.5 mL/min/kg | 15.8 nM | COCCn1c(Cc2ccc(-c3cccc(NCc4ccc(C#N)cc4OC)n3)cc2F)nc2ccc(C(=O)O)cc21 [Example 195]
